The data set is described as follows: photoluminescence quantum yield (fraction); solvent given as SMILES.

In turn, `CCc1c(C)[nH]c(C2=[N+]3C(=Cc4c(C)c(CC)c(C)n4[B-]3(F)F)c3ccccc32)c1C` had a photoluminescence quantum yield (in C1CCOC1) of 0.09; a photoluminescence quantum yield (in CC#N) of 0.03; a photoluminescence quantum yield (in CCCCCC) of 0.86; a photoluminescence quantum yield (in CO) of 0.04; a photoluminescence quantum yield (in Cc1ccccc1) of 0.75; a photoluminescence quantum yield (in ClCCl) of 0.73.
In turn, `Cc1cc(C)c(B(c2ccc(-n3c4ccccc4c4ccccc43)cc2)c2c(C)cc(C)cc2C)c(C)c1` yielded a photoluminescence quantum yield (in Cc1ccccc1) of 0.75.
`COc1ccc2c(c1)sc1[n+]2[B-](F)(F)OC(c2ccc(N(C)C)cc2)=N1` returned a photoluminescence quantum yield (in C1CCOC1) of 0.8; a photoluminescence quantum yield (in CC#N) of 0.38; a photoluminescence quantum yield (in CC(C)=O) of 0.56; a photoluminescence quantum yield (in Cc1ccccc1) of 0.88; a photoluminescence quantum yield (in ClCCl) of 0.83.
`CN(C)c1ccc(C2=CC3=C(c4ccc([N+](=O)[O-])cc4)[C@H]4c5ccccc5[C@]3(S2)c2ccccc24)cc1`: the photoluminescence quantum yield (in ClCCl) came out at 0.003.
`COc1ccc2c(c1)CCC1=C(C#Cc3cc4ccccc4c4ccccc34)O[B-](F)(F)[O+]=C12` yielded a photoluminescence quantum yield (in ClCCl) of 0.425.
Regarding `COc1ccc(-c2c3ccccc3c(C#Cc3ccccc3)c3cc4ccccc4cc23)cc1`, the photoluminescence quantum yield (in ClCCl) turned out to be 0.6.
`COc1ccc(C2=[N+]3C(=Nc4c5c6ccccc6c6ccc(C(C)(C)C)cc6c5c(-c5ccc(OC)cc5)n4[B-]3(F)F)c3c2c2cc(C(C)(C)C)ccc2c2ccccc32)cc1` returned a photoluminescence quantum yield (in Cc1ccccc1) of 0.32.
The molecule `CCCCCCn1c2ccccc2c2cc3c4cc5c6ccccc6n(CCCCCC)c5cc4c4cc5c(C)cc(=O)oc5cc4c3cc21` displayed a photoluminescence quantum yield (in ClC(Cl)Cl) of 0.12.
`CCCCN1C(=O)c2ccc3c4c(Br)cc5c6c(ccc(c7c(Br)cc(c2c37)C1=O)c64)C(=O)N(CCCC)C5=O` yielded a photoluminescence quantum yield (in ClC(Cl)Cl) of 0.73.
In turn, `COCCC1(CCOC)c2cc(-c3ccc(OC)cc3)ccc2-c2ccc(-c3ccc4c(c3)C(CCOC)(CCOC)c3cc(-c5ccc(OC)cc5)ccc3-4)cc21` registered a photoluminescence quantum yield (in CN(C)C=O) of 0.95.
For the molecule `CCN(CC)c1ccc(C2=C3C(C)=CC(/C=C/c4ccc(OCCCN=[N+]=[N-])cc4)=[N+]3[B-](F)(F)n3c(C)cc(C)c32)cc1`, where the note is “in CO”, the photoluminescence quantum yield was determined as 0.82.
`COc1ccc2c(c1)CCc1c(-c3ccccc3)c3n(c1-2)[B-](F)(F)[N+]1=C2C(=C(c4ccccc4)C1=N3)CCc1ccccc12`: the photoluminescence quantum yield (in ClC(Cl)Cl) turned out to be 0.32.
For `CC(C)(C)c1ccc2c(c1)c1cc(C(C)(C)C)ccc1n2-c1cc(N2c3ccccc3C(c3ccccc3)(c3ccccc3)c3ccccc32)cc(-n2c3ccc(C(C)(C)C)cc3c3cc(C(C)(C)C)ccc32)c1C#N`, the photoluminescence quantum yield (in Cc1ccccc1) stood at 0.2.
Consider `Cc1cc(C)c(C2=C3C=C(c4ccc(C(C)(C)C)cc4)C(c4ccc(C(C)(C)C)cc4)=[N+]3[B-](F)(F)n3c2cc(-c2ccc(C(C)(C)C)cc2)c3-c2ccc(C(C)(C)C)cc2)c(C)c1`, for which the photoluminescence quantum yield is, setting by setting: (in C1CCCCC1) 0.77; (in C1CCOC1) 0.96; (in CC#N) 0.62; (in Cc1ccccc1) 0.78; (in ClCCl) 0.74.
For `COC(=O)C(CCCCNC(=O)CCNc1cccc2ccccc12)NC(C)=O` (stereo not given), the photoluminescence quantum yield (in CCO) turned out to be 0.54.
On to `CCCCCCn1c2ccccc2c2cc(-c3ccc(-c4cc(-c5ccccn5)nc(-c5ccccn5)c4)cc3)ccc21`, for which the photoluminescence quantum yield (in ClCCl) came to 0.73.
The molecule `COc1ccc(C2=C3C=CC(=[N+](C)C)C=C3[Si](C)(C)c3cc(N(C)C)ccc32)c(C)c1` had a photoluminescence quantum yield (in O) of 0.29.
As to `Cc1ccc(-c2c3ccc([nH]3)c3nc(c(-c4ccc([N+](=O)[O-])cc4)c4ccc([nH]4)c4ccc([nH]4)c(-c4ccc(C)cc4)c4ccc2o4)C=C3)cc1`, the photoluminescence quantum yield reads like this: (in C1CCOC1) 0.018; (in Cc1ccccc1) 0.083; (in c1ccccc1) 0.098.
For the molecule `O=C(O)CC[N+]1=c2cc3c(cc2CCC1)=Cc1c(c2cc4c5c(c2oc1=O)CCCN5CCC4)O3`, the photoluminescence quantum yield reads like this: (in CC#N) 0.025; (in CO) 0.013; (in ClCCl) 0.163; (in O) 0.003.
Consider `Cc1cccc(C)c1Nc1ccc(/C=C/c2ccccc2)cc1`, for which the photoluminescence quantum yield by setting is: (in CC#N) 0.04; (in CCCCCC) 0.11.
Where the note is “in ClCCl”, `c1ccc(N(c2ccccc2)c2ccc3c4cccc5c(N(c6ccccc6)c6ccccc6)ccc(c6cccc2c63)c54)cc1` came in with a photoluminescence quantum yield of 0.65.
`Oc1ccccc1-c1nc2c3ccccc3c3ccccc3c2n1-c1ccccc1` gave a photoluminescence quantum yield (in Cc1ccccc1) of 0.001.
Where the note is “in C1CCCCC1”, `CCC(C)(C)c1ccc2c(c1)C(CCOC)(CCOC)c1cc(-c3ccc4c(c3)C(CCOC)(CCOC)c3cc(C(C)(C)CC)ccc3-4)ccc1-2` yielded a photoluminescence quantum yield of 0.61.
Consider `CCOC(=O)c1cc(C(=O)OCC)c2ccc(C)cc2n1`, for which the photoluminescence quantum yield (in CCO) came to 0.019.
On to `C1=C(c2ccccc2)B(c2ccccc2)Nc2c1ccc1ccccc21`, for which, for the setting “in C1CCCCC1”, the photoluminescence quantum yield turned out to be 0.51.
Turning to `CCCCCn1c2ccc(S(=O)(=O)O)cc2c(=O)c2cc(S(=O)(=O)O)ccc21`, the photoluminescence quantum yield was 0.7 (in CS(C)=O) and 0.92 (in O).
In the case of `CCCCCCCCC1(CCCCCCCC)c2cc3c(cc2-c2sc(-c4ccc(/C=C5\SC(=S)N(CC)C5=O)c5nsnc45)cc21)C(CCCCCCCC)(CCCCCCCC)c1cc(-c2ccc(/C=C4\SC(=S)N(CC)C4=O)c4nsnc24)sc1-3`, the photoluminescence quantum yield runs as follows: (in C1CCOC1) 0.029; (in ClC(Cl)Cl) 0.04.
`ClP1(Cl)=N[P@](Cl)(Oc2ccc3ccc4cccc5ccc2c3c45)=N[P@@](Cl)(Oc2ccc3ccc4cccc5ccc2c3c45)=N1` gave a photoluminescence quantum yield (in ClCCl) of 0.76.
Regarding `c1ccc2cc3c(cc2c1)-c1cccc2c1c-3cc1ccccc12`, the photoluminescence quantum yield (in CCCCCCC) is 0.73.
For the molecule `CC(O)CC1=N/C(=C\c2cccc(N(C)C)c2)C(=O)N1C` (stereo not given), the photoluminescence quantum yield was 0.11 (in C1CCOC1), 0.03 (in CC#N) and 0.37 (in CCCCCC).
In the case of `CCOC(=O)c1ccc(C2CC(c3cccc4ccccc34)=NN2c2ccc(C#N)cc2)cc1` (stereo not given), where the note is “in ClCCl”, the photoluminescence quantum yield came to 0.258.
`O=CC1=C(c2ccc(-c3cccs3)s2)CC1` came in with a photoluminescence quantum yield (in CCO) of 0.32.
In the case of `COc1ccc2nc(N)n[n+]([O-])c2c1`, the photoluminescence quantum yield was 0.472 (in CC#N) and 0.0868 (in O).
In the case of `COC(=O)C(NC(=O)OC(C)(C)C)c1ccc2oc(-c3ccc(OC(=O)c4ccccc4)cc3OC(=O)c3ccccc3)nc2c1` (stereo not given), the photoluminescence quantum yield came out at 0.003 (in CC1CCCCC1), 0.003 (in CC#N) and 0.002 (in CO).
For the setting “in CN(C)C=O”, `Cc1ccc2nc(-c3cccc4nc(C)[nH]c(=O)c34)oc2c1` yielded a photoluminescence quantum yield of 0.076.
As to `CC(C)(C)c1ccc2c(c1)[nH]c1c3[nH]c4cc(C(C)(C)C)ccc4c3c3nsnc3c21`, the photoluminescence quantum yield was determined as 0.09 (in CN(C)C=O), 0.11 (in Cc1ccccc1) and 0.12 (in ClCCl).
Under “in CC#N”, `Oc1ccccc1/C=N/c1cc2nc3ccccc3nc2cc1/N=C/c1ccccc1O` returned a photoluminescence quantum yield of 0.34.
In the case of `Cc1c(-c2ccc(N3c4ccccc4C(C)(C)c4ccccc43)cc2)ncnc1-c1ccc(N2c3ccccc3C(C)(C)c3ccccc32)cc1`, the photoluminescence quantum yield (in O=P(c1ccccc1)(c1ccccc1)c1ccccc1Oc1ccccc1P(=O)(c1ccccc1)c1ccccc1) was found to be 0.75.
In the case of `COc1cc(/C=C2/SC(=O)NC2=O)cc(OC)c1O`, the photoluminescence quantum yield runs as follows: (in C1CCCCC1) 0.032; (in C1COCCO1) 0.03; (in CC#N) 0.02; (in CN(C)C=O) 0.042; (in CO) 0.034; (in O) 0.027. The photoluminescence quantum yield was found to be 0.38 (in OCC(O)CO) and 0.108 (in OCCO).
`CC(=O)Nc1ccc(C2=C/C(=C\c3ccc([N+](=O)[O-])cc3)C(=O)O2)cc1` displayed a photoluminescence quantum yield (in C1COCCO1) of 0.043.
In the case of `Cc1cc(=O)oc2c1cc(Br)c1occ(C)c12`, the photoluminescence quantum yield stood at 0.0006 (in C1CCCCC1); 0.001 (in C1COCCO1); 0.002 (in CC#N); 0.004 (in CCO); 0.004 (in OCC(F)(F)F).
As for `F[B-]1(F)n2c(ccc2-c2nc3ccccc3s2)C(c2ccccc2)=C2C=CC(c3nc4ccccc4s3)=[N+]21`, the photoluminescence quantum yield (in ClC(Cl)Cl) is 0.86.
In the case of `CCCc1ccc(C#Cc2ccc3nc4ccc(C#Cc5ccc(CCC)cc5)cn4c(=O)c3c2)cc1`, for the setting “in ClCCl”, the photoluminescence quantum yield was determined as 0.45.
For the molecule `COc1cc2c(cc1/C=C/C1=CC(=C(C#N)C#N)CC(C)(C)C1)c1ccccc1n2C`, the photoluminescence quantum yield (in C1CCOC1) was 0.013; the photoluminescence quantum yield (in CC#N) was 0.031; the photoluminescence quantum yield (in CCO) amounted to 0.021; the photoluminescence quantum yield (in CCOC(C)=O) was 0.009; the photoluminescence quantum yield (in CN(C)C=O) was found to be 0.038; the photoluminescence quantum yield (in CS(C)=O) stood at 0.059. The photoluminescence quantum yield (in Cc1ccccc1) was 0.007, the photoluminescence quantum yield (in ClC(Cl)Cl) stood at 0.018 and the photoluminescence quantum yield (in ClCCl) was 0.022.
In turn, `c1ccc(/C(=C(\c2ccccc2)c2cc(-c3ccc(-c4ccccc4)cc3)ccc2-c2ccc(-c3ccccc3)cc2)c2cc(-c3ccc(-c4ccccc4)cc3)ccc2-c2ccc(-c3ccccc3)cc2)cc1` yielded a photoluminescence quantum yield (in C1CCOC1) of 0.32.
In the case of `c1ccc2nc(-n3c4ccccc4c4ccccc43)c(-n3c4ccccc4c4ccccc43)nc2c1`, the photoluminescence quantum yield (in Cc1ccccc1) is 0.13.
`CC1=C(c2cccs2)C2=Cc3c(-c4cccs4)c(C)c(C)n3[B-](F)(F)[N+]2=C1C`: the photoluminescence quantum yield (in CC#N) was 0.52.
In turn, `COc1cccc2cc(C)c3c4ccccc4n(C)c3c12` registered a photoluminescence quantum yield (in ClCCl) of 0.215.

Source of the values: the Deep4Chem optical property database.
